We go through seven compounds from PMC9230623, “Design, Synthesis, In Vitro Biological Activity Evaluation and Stabilized Nanostructured Lipid Carrier Formulation of Newly Synthesized Schiff Bases-Based TMP Moieties” (Pharmaceuticals, 2022).

For data set [1], the system named is MDA-MB-231 breast cancer cell line. Kind of data set: Cytotoxic assay against MDA-MB-231 breast cancer cell line. The class given is cell-based. The following applies: Homo sapiens. The method, then: The newly prepared Schiff bases 2–5g were screened for their in vitro cytotoxic activity against the MDA-MB-231 breast cancer cell line taking CA-4 as a reference drug. […] In addition, further structure extension to give N-aryl hydrazinyl molecules 4a–5g produced compounds with considerable cytotoxic activity, which may give an indication that the aryl ring is important for cytotoxic activity. […]
Cytotoxic activity of the prepared schiff bases against MDA-MB-231 breast cell Line was determined according previously reported methods. (See Supplementary Materials—Appendix SB).

The subject of data set [2] is normal breast cell line MCF-10A. Kind of data set: Cytotoxic assay against normal breast cell line MCF-10A. The following applies: Homo sapiens, read-out: IC50 Value (μM) MCF-10A. In kind it is cell-based.
Data set [3] relates to tubulin. Kind of data set: Tubulin polymerization inhibition by immunofluorescence analysis (confocal microscope). The class given is cell-based, human. The following applies: at its IC50 concentration, MDA-MB-231, compared with untreated cells. The method, then: Several investigations have shown that TMP-containing compounds such as Col and CA-4 interact with tubulin at the colchicine binding site, inhibiting microtubule assembly. The effects of representative Schiff bases on the inhibition of tubulin assembly were evaluated. […] Tubulin polymerization inhibitory activity against the MDA-MB-231 cell line was investigated by immunofluorescence analysis using a confocal microscope.
(§1) Compound 4h was evaluated for their Tubulin inhibitory activity according to manufacturer’s instructions.

In the next data set the test system is β-tubulin. The experiment in a line: Tubulin polymerization inhibitory activity, ELISA assay for β-tubulin. The class given is cell-based, human. Conditions: at IC50 (1.27 μM), compared with no treatment control. As to the method:
In addition, compound 4h was subjected to in vitro tubulin polymerization inhibitory activity assay using ELISA assay for β-tubulin.
as §1

Data set [4] concerns MDA-MB-231 cells. Kind of data set: Cell cycle analysis (FACS, DNA flow cytometry). In kind it is cell-based, human. The text has this:
For the purpose of studying the influence of these hydrazides on the cell cycle progression of MDA-MB-231 human malignant cell lines. A FACS analysis was used to determine the DNA proportion of cell nuclei.
(§2) See Supplementary Materials—Appendix SB.

In data set [5] the test system is MDA-MB-231 cells. The experiment in a line: Annexin V FITC/PI staining apoptosis assay. The class given is cell-based, human. As to the method: A double staining examination of annexin V FITC/propidium iodide (PI) was used to evaluate compound 4h’s influence on apoptosis and estimate the percentage of the total, early, and late apoptosis in MDA-MB-231 cells. […] Furthermore, the proportion of early and late apoptotic cells rose by 23.12- and 63.67-fold, respectively, as compared to the untreated control cells.
as §2

Data set [6] has as its system mitochondrial membrane potential of MDA-MB-231 cells. Kind of data set: Mitochondrial membrane potential by flow cytometry. The class given is cell-based, human. The method, then: Most of the known anticancer molecules induce apoptotic cascade via activation of the intrinsic pathway via release of cytochrome-c after depolarization of mitochondrial membrane. The potential status of the mitochondrial membrane is determined by the electrochemical gradient (Δψ).
as §2

For data set [7], the system named is MCF-7 breast cancer cell line. The following applies: MCF-7 ref 26; cited from earlier work.
Data set [8] relates to tubulin. On the set-up: method as in PMID 32325332. The following applies: at its IC50 dose level ref 22; cited from earlier work.
Data set [9] has as its system four human cancer cell lines. On the set-up: method as in PMID 27149641. Conditions: four human cancer cell lines ref 21; read-out: IC50 antiproliferative activity; cited from earlier work.
[10] abbreviates: MDA-MB-231, mean of three independent replicates ± SE, read-out: IC50 Value (μM) MDA-MB-231.
[11] abbreviates: compared to untreated control cells.

Where two headings read alike, the source gives them in different places.

With `COc1ccc(/C=C\c2cc(OC)c(OC)c(OC)c2)cc1O` [CA-4, combretastatin A-4, reference compound], the IC50 amounted to 0.54 ± 0.04 µM in [1] (MDA-MB-231, read-out: IC50 Value (μM) MDA-MB-231) and 8.86 ± 0.67 µM in data set [2].
As for `COc1cc(/C=C(\NC(=O)c2cc(OC)c(OC)c(OC)c2)C(=O)N/N=C/c2cc(Br)c(O)c(Br)c2)cc(OC)c1OC` [Compound 4h, N-((Z)-3-((E)-2-(3,5-Dibromo-4-hydroxybenzylidene)hydrazinyl)-3-oxo-1-(3,4,5-trimethoxyphenyl)prop-1-en-2-yl)-3,4,5-trimethoxybenzamide], the IC50 in data set [1] (setting [10]) came out at 1.27 ± 0.18 µM. In addition, the IC50 in data set [2] (mean of three independent replicates ± SE) is 30.8 ± 2.32 µM. In addition, the “tubulin polymerization inhibition activity (immunofluorescence)” value in the data set with tubulin [3] is listed as “good tubulin polymerization inhibition activity”. The “percent inhibition of tubulin polymerization” value in the data set on β-tubulin is 78.14%. Moreover, the “%Pre-G1” value in the data set on MDA-MB-231 cells [4] (IC50 concentration, 24 h) is recorded as 31.27%. Also, the “%DIP G2/M” value in the data set on MDA-MB-231 cells [4] (IC50 concentration, 24 h, untreated control 8.22%) worked out at 38.65%. Also, the “cell cycle arrest at G2/M phase relative to control cells” value with MDA-MB-231 cells [4] (versus control MDA-MB-231 cells) is listed as “fivefold”. Further, the “increase in percentage of pre-G1 phase relative to negative control” value in the data set on MDA-MB-231 cells [4] (versus negative control cells) is listed as ~19 fold. Further, the overall apoptosis in the data set on MDA-MB-231 cells [5] (24 h, no treatment control 1.63%) is on record as 31.27%. Also, in the data set on MDA-MB-231 cells [5] (setting [11]), the “rise of early apoptotic cells” value was determined as 23.12 fold and the “rise of late apoptotic cells” value is 63.67 fold. In [6] (IC50 concentration, 24 h, in comparison with untreated cells), the “reduction in the level of MMPψ” value turned out to be 65.23%. Moreover, the “decrease in the level of MMP” value in data set [6] (compared to negative control cells) is 3 fold.
On to `COc1ccc(/C(C)=N/NC(=O)/C(=C/c2cc(OC)c(OC)c(OC)c2)NC(=O)c2cc(OC)c(OC)c(OC)c2)cc1OC` [Compound 5f, N-((Z)-3-((E)-2-(1-(3,4-Dimethoxyphenyl)ethylidene)hydrazinyl)-3-oxo-1-(3,4,5-trimethoxyphenyl)prop-1-en-2-yl)-3,4,5-trimethoxybenzamide], for which the melting point lay in the range of 234 to 236 °C. In data set [1] (setting [10]), the IC50 came to 8.34 ± 1.22 µM.
The matching figures for `COc1cc(/C=C(\NC(=O)c2cc(OC)c(OC)c(OC)c2)C(=O)N/N=C(\C)c2cc(OC)c(OC)c(OC)c2)cc(OC)c1OC` [Compound 5g, 3,4,5-Trimethoxy-N-((Z)-3-oxo-1-(3,4,5-trimethoxyphenyl)-3-((E)-2-(1-(3,4,5-trimethoxyphenyl)ethylidene)hydrazinyl)prop-1-en-2-yl)benzamide]: 211 to 213 °C and 3.39 ± 0.26 µM.
Turning to `COc1cc(C(=O)N/N=C/c2cc3ccccc3[nH]2)cc(OC)c1OC` [VII], the IC50 in [7] was 870 nM.
As to `COc1cc(C(=O)NNC(=O)c2ccc(NC(=O)CCl)cc2)cc(OC)c1OC` [VI], the “in vitro tubulin polymerization inhibition activity” value in the data set on tubulin [8] is 83.1%.
On to `COc1ccc2c(c1)NC(/C=C(\C)C(=O)c1cc(OC)c(OC)c(OC)c1)C2` (stereo not shown) [V], for which, in data set [9], the IC50 is 3 to 9 nM.
